Columns and labels:
[1] = system: HBs; experiment: Effects of signaling pathways regulated by small molecules on proliferation of HBs; assay type: cell-based, human; conditions: small molecule regulating a signaling pathway; FIGS. 2B and 2C
Description: Further, effects of the signaling pathways on the proliferation and differentiation of HBs were analyzed by regulating the related signaling pathways with small molecules.

[2] = system: HBs; experiment: Effects of signaling pathways regulated by small molecules on characteristics of HBs (AFP expression); assay type: cell-based, human; conditions: FIG. 2D
From the text: In addition to proliferation, the effects of the related signaling pathways on the characteristics of HBs were further analyzed.

Row | Compound | proliferation of HBs [1] | expression of AFP / maintenance of the characteristics of HBs [2]
1 | Cc1cccc(-c2nn(C(=S)Nc3ccccc3)cc2-c2ccnc3ccccc23)n1 [A8301] | promoted the proliferation of HBs | promoted the expression of liver cell-related genes such as AFP
2 | Cc1c[nH]c(-c2cnc(NCCNc3ccc(C#N)cn3)nc2-c2ccc(Cl)cc2Cl)n1 [CHIR, CHIR99021] | promoted the proliferation of HBs | inhibited the expression of AFP
3 | CNC1CCC(N(Cc2cccc(-c3ccncc3)c2)C(=O)c2sc3ccccc3c2Cl)CC1 (stereo not drawn) [SAG] | promoted the proliferation of HBs | promoted the expression of liver cell-related genes such as AFP
